{"source": "patent US8263628B2", "about": "“Fluorine-containing organosulfur compound and pesticidal composition thereof” (Sumitomo Chemical Company, Limited., priority 2007, dated 2012)", "key": {"[1]": {"tested_on": "Musca domestica", "experiment": "Filter paper/sucrose bait test against female Musca domestica", "format": "in vivo", "conditions": "500 ppm test solution, 0.7 mL on filter paper; 10 female Musca domestica; after 24 hours; read-out: mortality rate", "description": "Each of the formulations of the present compounds (1), (2), (3), (4), (5), (6), (8), (9), (10), (12), (14) and (15) obtained in Formulation Example 20 was diluted so that the concentration of the present compound was 500 ppm to prepare a test solution.\nOn the bottom of a polyethylene cup having a diameter of 5.5 cm, a filter paper having the same size was laid and 0.7 mL of the test solution was dropped on the filter paper, and then 30 mg of a sucrose as a bait was uniformly placed. In the polyethylene cup, 10 female Musca domesticas were released and the cup was lidded. After 24 hours, life and death of Musca domesticas were examined and the mortality rate was determined."}, "[2]": {"tested_on": "Culex pipiens pallens", "experiment": "Water treatment test against Culex pipiens pallens last instar larvae", "format": "in vivo", "conditions": "24 h; active ingredient 3.5 ppm in water; 20 Culex pipiens pallens last instar larvae; after one day; read-out: mortality rate", "description": "Each of the formulations of the present compounds (1), (3), (4), (6), (8), (9), (10), (14) and (15) obtained in Formulation Example 20 was diluted so that the concentration of the present compound was 500 ppm to prepare a test solution.\nTo 100 mL of ion-exchange water was added 0.7 mL of the above test solution (concentration of an active ingredient: 3.5 ppm). In the solution, 20 Culex pipiens pallens last instar larvae were released. After one day, life and death of Culex pipiens last instar larvae were examined and the mortality rate was determined."}}}
{"compound": "FC(F)(F)CCSCc1ccc(C(F)(F)F)nc1", "note": "[present compound (1), 2-trifluoromethyl-5-(3,3,3-trifluoropropylsulfanylmethyl)pyridine]", "values": [{"measurement": "mortality at 500 ppm", "setting": "[1]", "result": "≥ 90", "unit": "%"}, {"measurement": "mortality at 3.5 ppm", "setting": "[2]", "result": "≥ 95", "unit": "%"}]}
{"compound": "O=S(=O)(CCC(F)(F)F)Cc1ccc(C(F)(F)F)nc1", "note": "[present compound (2), 2-trifluoromethyl-5-(3,3,3-trifluoropropanesulfonylmethyl)pyridine]", "values": [{"measurement": "mortality at 500 ppm", "setting": "[1]", "result": "≥ 90", "unit": "%"}]}
{"compound": "CC(SCCC(F)(F)F)c1ccc(C(F)(F)F)nc1", "note": "(stereo not drawn) [present compound (3), 2-trifluoromethyl-5-[1-(3,3,3-trifluoropropylsulfanyl)ethyl]pyridine]", "values": [{"measurement": "mortality at 500 ppm", "setting": "[1]", "result": "≥ 90", "unit": "%"}, {"measurement": "mortality at 3.5 ppm", "setting": "[2]", "result": "≥ 95", "unit": "%"}]}
{"compound": "CC(c1ccc(C(F)(F)F)nc1)S(=O)(=O)CCC(F)(F)F", "note": "(stereo not drawn) [present compound (4), 2-trifluoromethyl-5-[1-(3,3,3-trifluoropropanesulfonyl)ethyl]pyridine]", "values": [{"measurement": "mortality at 500 ppm", "setting": "[1]", "result": "≥ 90", "unit": "%"}, {"measurement": "mortality at 3.5 ppm", "setting": "[2]", "result": "≥ 95", "unit": "%"}]}
{"compound": "FC(F)(F)CCSCc1ccc(Cl)cn1", "note": "[present compound (5), 5-chloro-2-(3,3,3-trifluoropropylsulfanylmethyl)pyridine]", "values": [{"measurement": "mortality at 500 ppm", "setting": "[1]", "result": "≥ 90", "unit": "%"}]}
{"compound": "CC(SCCC(F)(F)F)c1ccc(Cl)cn1", "note": "(stereo not drawn) [present compound (6), 5-chloro-2-[1-(3,3,3-trifluoropropylsulfanyl)ethyl]pyridine]", "values": [{"measurement": "mortality at 500 ppm", "setting": "[1]", "result": "≥ 90", "unit": "%"}, {"measurement": "mortality at 3.5 ppm", "setting": "[2]", "result": "≥ 95", "unit": "%"}]}
{"compound": "CC(SCCC(F)(F)F)c1ccc(C(F)(F)F)cn1", "note": "(stereo not drawn) [present compound (8), 5-trifluoromethyl-2-[1-(3,3,3-trifluoropropylsulfanyl)ethyl]pyridine]", "values": [{"measurement": "mortality at 500 ppm", "setting": "[1]", "result": "≥ 90", "unit": "%"}, {"measurement": "mortality at 3.5 ppm", "setting": "[2]", "result": "≥ 95", "unit": "%"}]}
{"compound": "CC(c1ccc(C(F)(F)F)cn1)S(=O)(=O)CCC(F)(F)F", "note": "(stereo not drawn) [present compound (9), 5-trifluoromethyl-2-[1-(3,3,3-trifluoropropanesulfonyl)ethyl]pyridine]", "values": [{"measurement": "mortality at 500 ppm", "setting": "[1]", "result": "≥ 90", "unit": "%"}, {"measurement": "mortality at 3.5 ppm", "setting": "[2]", "result": "≥ 95", "unit": "%"}]}
{"compound": "FC(F)(F)CCSCc1cnc(C(F)(F)F)nc1", "note": "[present compound (10), 2-trifluoromethyl-5-(3,3,3-trifluoropropylsulfanylmethyl)pyrimidine]", "values": [{"measurement": "mortality at 500 ppm", "setting": "[1]", "result": "≥ 90", "unit": "%"}, {"measurement": "mortality at 3.5 ppm", "setting": "[2]", "result": "≥ 95", "unit": "%"}]}
{"compound": "COc1ncc(CSCCC(F)(F)F)cn1", "note": "[present compound (12), 2-methoxy-5-(3,3,3-trifluoropropylsulfanylmethyl)pyrimidine]", "values": [{"measurement": "mortality at 500 ppm", "setting": "[1]", "result": "≥ 90", "unit": "%"}]}
{"compound": "COC(=O)C(Cl)(c1ccc(C(F)(F)F)cn1)S(=O)(=O)CCC(F)(F)F", "note": "(stereo not drawn) [present compound (14), methyl 2-chloro-2-(5-trifluoromethylpyridin-2-yl)-2-(3,3,3-trifluoropropylsulfonyl)acetate]", "values": [{"measurement": "mortality at 500 ppm", "setting": "[1]", "result": "≥ 90", "unit": "%"}, {"measurement": "mortality at 3.5 ppm", "setting": "[2]", "result": "≥ 95", "unit": "%"}]}
{"compound": "O=S(=O)(CCC(F)(F)F)C(Cl)c1ccc(C(F)(F)F)cn1", "note": "(stereo not drawn) [present compound (15), 2-[chloro-(3,3,3-trifluoropropanesulfonyl)methyl]-5-trifluoromethylpyridine]", "values": [{"measurement": "mortality at 500 ppm", "setting": "[1]", "result": "≥ 90", "unit": "%"}, {"measurement": "mortality at 3.5 ppm", "setting": "[2]", "result": "≥ 95", "unit": "%"}]}
